Measurements as given in EP2951180B1, “2,6,7,8 SUBSTITUTED PURINES AS HDM2 INHIBITORS” (Merck Sharp & Dohme Corp., priority 2013, dated 2014).
Like-named read-outs stand apart in the source and are kept apart here.

Target: T1, HDM2 (Homo sapiens, UniProt Q00987)
T1 construct: Thioredoxin (N); made in house; host or cells: E. coli strain BL21(DE3)Rosetta
Experiment: HDM2 FRET assay (inhibition of binding of FITC labeled p53-pocket peptide to HDM2)
Settings: for IC50: read-out: FRET IC50
Summary of the method: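 Final: 0.5 nM His-HDM2, 3 nM FITC peptide, 0.25 nM Tb anti-His Ab; PBS, 0.01% BSA, 0.01% Tween-20; 0.1% DMSO.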

T1 sequence (Q00987 17-125): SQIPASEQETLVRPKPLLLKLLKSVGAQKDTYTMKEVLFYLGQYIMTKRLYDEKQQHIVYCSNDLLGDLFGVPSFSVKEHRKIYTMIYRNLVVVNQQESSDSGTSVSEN

| SMILES | IC50 (Table 22) [nM] | IC50 (Table 6) [nM] | also measured |
| --- | --- | --- | --- |
| C[C@@H](Nc1nc(-c2noc(=O)[nH]2)nc2nc(C(C)(O)c3ccccc3)n(C[C@H]3CC[C@H](C)CC3)c12)C1CCC1 (single isomer, unassigned) [Example 22.24] | 33.8 |  |  |
| C[C@@H](Nc1nc(-c2noc(=O)[nH]2)nc2nc(C(O)(c3ccccc3)C(F)(F)F)n(C[C@H]3CC[C@H](C)CC3)c12)C1CCC1 (single isomer, unassigned) [Example 22.25] | 501 |  |  |
| C[C@@H](Nc1nc(-c2noc(=O)[nH]2)nc2nc(C(O)(c3ccccc3)C(F)(F)F)n(C[C@H]3CC[C@H](C)CC3)c12)C1CCC1 (single isomer, unassigned) [Example 22.28] | 27.3 |  |  |
| C[C@@H](Nc1nc(-c2noc(=O)[nH]2)nc2nc(C(O)(CO)c3ccccc3)n(C[C@H]3CC[C@H](C)CC3)c12)C1CCC1 (single isomer, unassigned) [Example 22.60] | 113 |  |  |
| C[C@@H](Nc1nc(-c2noc(=O)[nH]2)nc2nc(C(O)(CO)c3ccccc3)n(C[C@H]3CC[C@H](C)CC3)c12)C1CCC1 (single isomer, unassigned) [Example 22.61] | 2.8 |  |  |
| C[C@@H](Nc1nc(-c2noc(=O)[nH]2)nc2nc(C(C)(F)c3ccccc3F)n(C[C@H]3CC[C@H](C)CC3)c12)C1CCC1 (single isomer, unassigned) [Example 22.62] | 0.563 |  |  |
| C[C@@H](Nc1nc(-c2noc(=O)[nH]2)nc2nc(C(C)(F)c3ccccc3F)n(C[C@H]3CC[C@H](C)CC3)c12)C1CCC1 (single isomer, unassigned) [Example 22.65] | 22.6 |  |  |
| Cc1nc(C(C)(F)c2nc3nc(-c4noc(=O)[nH]4)nc(N[C@H](C)C4CCC4)c3n2C[C@H]2CC[C@H](C)CC2)c(C)s1 (single isomer, unassigned) [Example 22.73] | 4.06 |  |  |
| Cc1nc(C(C)(F)c2nc3nc(-c4noc(=O)[nH]4)nc(N[C@H](C)C4CCC4)c3n2C[C@H]2CC[C@H](C)CC2)c(C)s1 (single isomer, unassigned) [Example 22.75] | 5.48 |  |  |
| C[C@@H](Nc1nc(-c2noc(=O)[nH]2)nc2nc(C(C)(F)c3ccccc3)n(C[C@H]3CC[C@H](C)CC3)c12)C1CCC1 (single isomer, unassigned) [Example 22.77] | 2.95 |  |  |
| C[C@@H](Nc1nc(-c2noc(=O)[nH]2)nc2nc(C(C)(F)c3ccccc3)n(C[C@H]3CC[C@H](C)CC3)c12)C1CCC1 (single isomer, unassigned) [Example 22.78] | 12.3 |  |  |
| COC(c1ccccc1)c1nc2nc(-c3noc(=O)[nH]3)nc(-c3cccc(Cl)c3)c2n1C[C@H]1CC[C@H](C)CC1 (single isomer, unassigned) [Example 23.44, 3-{6-(3-chlorophenyl)-8-[methoxy(phenyl)methyl]-7-[(trans-4-methylcyclohexyl)methyl] -7H-purin-2-yl}-1,2,4-oxadiazol-5(4H)-one] |  |  | IC50 (Table 23): 4.53 nM |
| COC(C)(c1ccccc1F)c1nc2nc(-c3noc(=O)[nH]3)nc(-c3cncc(Cl)c3)c2n1C[C@H]1CC[C@H](C)CC1 (single isomer, unassigned) [Example 23.49, 3-{6-(5-chloropyridin-3-yl)-8-[1-(2-fluorophenyl)-1-methoxyethyl]-7-[(trans-4-methylcyclohexyl)methyl]-7H-purin-2-yl}-1,2,4-oxadiazol-5(4H)-one] |  |  | IC50 (Table 23): 0.888 nM |
| C[C@@H](Nc1nc(-c2noc(=O)[nH]2)nc2nc(N(C)[C@@H]3CCCC[C@@H]3O)n(C[C@H]3CC[C@H](C)CC3)c12)C1CCC1 (stereo in doubt) [Example 11.132, 3-(6-{[(1R)-1-cyclobutylethyl]amino}-8-{[(1R,2S)-2-hydroxycyclohexyl](methyl)amino}-7-[(trans-4-methylcyclohexyl)methyl]-7H-purin-2-yl)-1,2,4-oxadiazol-5(4H)-one] |  |  | IC50 (Table 11): 25.6 nM |
| C[C@@H](Nc1nc(-c2noc(=O)[nH]2)nc2nc(N(C)[C@@H]3CCCC[C@@H]3O)n(C[C@H]3CC[C@H](C)CC3)c12)C1CCC1 (stereo in doubt) [Example 11.134, 3-(6-{[(1R)-1-cyclobutylethyl]amino}-8-{[(1R,2S)-2-hydroxycyclohexyl] (methyl)amino}-7-[(trans-4-methylcyclohexyl)methyl]-7H-purin-2-yl)-1,2,4-oxadiazol-5(4H)-one] |  |  | IC50 (Table 11): 9.46 nM |
| C[C@@H]1OCCN(c2nc3nc(-c4n[nH]c(=O)o4)nc(N[C@H](C)C4CCC4)c3n2C[C@H]2CC[C@H](C)CC2)[C@H]1C (stereo in doubt) [Example 11.167, 5-(6-{[(1R)-1-cyclobutylethyl]amino}-8-[(trans)-2,3-dimethylmorpholin-4-yl]-7-[(trans-4-methylcyclohexyl)methyl]-7H-purin-2-yl)-1,3,4-oxadiazol-2(3H)-one] |  |  | IC50 (Table 11): 2.16 nM |
| CCC1CCN(c2nc(C(=O)O)nc3nc(-c4cccc(C)c4)n(Cc4ccc(C(F)(F)F)cc4)c23)C1 (stereo not drawn) [Example 6.1, 6-(3-ethylpyrrolidin-1-yl)-8-(3-methylphenyl)-7-[4-(trifluoromethyl)benzyl]-7H-purine-2-carboxylic acid] |  |  | inhibition at 1 µM (read-out: inh. at 1000 nM (FRET)): 41% |

| SMILES | IC50 (Table 22) [nM] | IC50 (Table 6) [nM] | also measured |
| --- | --- | --- | --- |
| Cc1cccc(-c2nc3nc(C(=O)O)nc(N[C@H](C)C4CCC4)c3n2Cc2ccc(Cl)cc2)c1 [Example 6.2, 7-(4-chlorobenzyl)-6-{[(1R)-1-cyclobutylethyl]amino}-8-(3-methylphenyl)-7H-purine-2-carboxylic acid] |  | 13.9 |  |
| Cc1cccc(-c2nc3nc(C(=O)O)nc(N[C@H](C)C4CCCC4)c3n2Cc2ccc(Cl)cc2)c1 [Example 6.3, 7-(4-chlorobenzyl)-6-{[(1R)-1-cyclopentylethyl]amino}-8-(3-methylphenyl)-7H-purine-2-carboxylic acid] |  | 31.4 |  |
| Cc1cccc(-c2nc3nc(C(=O)O)nc(N[C@H](C)C4CCCCC4)c3n2Cc2ccc(Cl)cc2)c1 [Example 6.4, 7-(4-chlorobenzyl)-6-{[(1R)-1-cyclohexylethyl]amino}-8-(3-methylphenyl)-7H-purine-2-carboxylic acid] |  | 1030 |  |
| Cc1cccc(-c2nc3nc(C(=O)O)nc(N[C@H](C)C4CC4)c3n2Cc2ccc(Br)cc2)c1 [Example 6.5, 7-(4-bromobenzyl)-6-{[(1R)-1-cyclopropylethyl]amino}-8-(3-methylphenyl)-7H-purine-2-carboxylic acid] |  | 234 |  |
| Cc1cccc(-c2nc3nc(C(=O)O)nc(NC(C)(C)C4CC4)c3n2Cc2ccc(Cl)cc2)c1 [Example 6.6, 7-(4-chlorobenzyl)-6-[(1-cyclopropyl-1-methylethyl)amino]-8-(3-methylphenyl)-7H-purine-2-carboxylic acid] |  | 1650 |  |
| Cc1cccc(-c2nc3nc(C(=O)O)nc(N[C@H](C)C4CCC4)c3n2Cc2ccc(Br)cc2)c1 [Example 6.7, 7-(4-bromobenzyl)-6-{[(1R)-1-cyclobutylethyl]amino}-8-(3-methylphenyl)-7H-purine-2-carboxylic acid] |  | 75.7 |  |
| Cc1cccc(-c2nc3nc(C(=O)O)nc(NC4CCCCC4C)c3n2Cc2ccc(C(F)(F)F)cc2)c1 (stereo not drawn) [Example 6.8, 6-[(2-methylcyclohexyl)amino]-8-(3-methylphenyl)-7-[4-(trifluoromethyl)benzyl]-7H-purine-2-carboxylic acid] |  | 228 |  |
| Cc1cccc(-c2nc3nc(C(=O)O)nc(NC4CCCCC4C)c3n2Cc2ccc(Br)cc2)c1 (stereo not drawn) [Example 6.9, 7-(4-bromobenzyl)-6-[(2-methylcyclohexyl)amino]-8-(3-methylphenyl)-7H-purine-2-carboxylic acid] |  | 22.3 |  |
| Cc1cccc(-c2nc3nc(C(=O)O)nc(NC4CCCCC4C)c3n2Cc2ccc(Br)cc2)c1 (stereo not drawn) [Example 6.10, 7-(4-bromobenzyl)-6-[(2-methylcyclohexyl)amino]-8-(3-methylphenyl)-7H-purine-2-carboxylic acid] |  | 1040 |  |
| Cc1cccc(-c2nc3nc(C(=O)O)nc(N(C)C(C)C4CC4)c3n2Cc2ccc(Cl)cc2)c1 (stereo not drawn) [Example 6.11, 7-(4-chlorobenzyl)-6-[(1-cyclopropylethyl)(methyl)amino]-8-(3-methylphenyl)-7H-purine-2-carboxylic acid] |  | 1420 |  |
| O=C(O)c1nc(NCC2CC2)c2c(n1)nc(-c1cccc(Cl)c1)n2Cc1ccc(Cl)cc1 [Example 6.12, 7-(4-chlorobenzyl)-8-(3-chlorophenyl)-6-[(cyclopropylmethyl)amino]-7H-purine-2-carboxylic acid] |  | 4100 |  |
| C[C@@H](Nc1nc(C(=O)O)nc2nc(-c3ccc4sccc4c3)n(Cc3ccc(C(F)(F)F)cc3)c12)C1CC1 [Example 6.13, 8-(1-benzothiophen-5-yl)-6-{[(1R)-1-cyclopropylethyl]amino}-7-[4-(trifluoromethyl)benzyl]-7H-purine-2-carboxylic acid] |  | 16.3 |  |
| C[C@@H](Nc1nc(C(=O)O)nc2nc(-c3ccc4sccc4c3)n(Cc3ccc(C(F)(F)F)cc3)c12)C1CCC1 [Example 6.14, 8-(1-benzothiophen-5-yl)-6-{[(1R)-1-cyclobutylethyl]amino}-7-[4-(trifluoromethyl)benzyl]-7H-purine-2-carboxylic acid] |  | 35.3 |  |
| Cc1cccc(-c2nc3nc(C(=O)O)nc(N[C@H](C)C4CC4)c3n2Cc2ccc(F)c(Cl)c2)c1 [Example 6.15, 7-(3-chloro-4-fluorobenzyl)-6-{[(1R)-1-cyclopropylethyl]amino}-8-(3-methylphenyl)-7H-purine-2-carboxylic acid] |  | 371 |  |
| Cc1cccc(-c2nc3nc(C(=O)O)nc(N[C@H](C)C4CC4)c3n2Cc2ccc(Cl)c(Cl)c2)c1 [Example 6.16, 6-{[(1R)-1-cyclopropylethyl]amino}-7-(3,4-dichlorobenzyl)-8-(3-methylphenyl)-7H-purine-2-carboxylic acid] |  | 462 |  |
| Cc1cccc(-c2nc3nc(C(=O)O)nc(N[C@H](C)C4CC4)c3n2Cc2ccc(Cl)c(F)c2)c1 [Example 6.17, 7-(4-chloro-3-fluorobenzyl)-6-{[(1R)-1-cyclopropylethyl]amino}-8-(3-methylphenyl)-7H-purine-2-carboxylic acid] |  | 25.8 |  |
